Structures can show the parent of a compound that is named as a salt.
Test system: bacterial strains that express KPC β-lactamases
Test: Synergy MIC / standard BLI potentiation MIC assay against strains expressing KPC β-lactamases
Assay type: cell-based
Settings: in the presence of a β-lactam; comparator Avibactam
Experimental: The experimental protocol was performed according to Clinical and Laboratory Standards Institute (CLSI) guidelines with modifications as described below (CLSI guidelines can be derived from the CLSI document M07-A9 published in January 2012: “Methods for Dilution Antimicrobial Susceptibility Tests for Bacteria That Grow Aerobically; Approved Standard-Ninth Edition”).
To prepare for MIC testing, frozen glycerol stocks of clinical isolates (Klebsiella pneumoniae, Eschericia coli, Enterobacter spp, Citrobacter spp, or Pseudomonas aeruginosa) were used to streak for isolated colonies on rich, non-selective, tryptic soy agar containing 5% sheep's blood (TSAB). Frozen glycerol stocks of laboratory engineered, isogenic E. coli strains, which contain cloned β-lactamase expressing plasmids were used to streak for isolated colonies on rich, selective LB agar supplemented with 25 μg/mL tetracycline to maintain the plasmid. All strains were incubated at 37° C. for 18-24 hrs.
On the day of testing, primary cultures were started by scraping off 5-10 colonies from the TSAB plates containing clinical strains or the tetracycline supplemented LB plates containing engineered strains. The clinical strain material was suspended in ˜5 mL of cation adjusted Mueller Hinton Broth (CAMHB) in 14 mL culture tubes. The engineered strain material was suspended in CAMHB (supplemented with 25 μg/mL tetracycline) in 14 mL culture tubes. All strains were incubated at 37° C. with aeration (200 rpm) for ˜2 hrs until the optical density at 600 nm (OD600) was >0.1.
The two compound components of the assay were each diluted in CAMHB and added to the 96-well broth microdilution assay plates. 50 μL of the β-lactam was added to each well of the assay plate in 2-fold dilutions with final concentrations ranging from 128 to 0.13 μg/mL. 25 μL, of the BLI compound was added to all wells in the broth microdilution plates at a final concentration of 4 μg/mL. Inoculum cultures were prepared by standardizing the primary cultures to OD600=0.1 and then adding 20 μL of the adjusted primary culture per 1 mL CAMHB for clinical strains or CAMHB (supplemented with tetracycline at 100 μg/mL) for engineered strains, so that the final inoculum density was ˜10^5 colony forming units per milliliter. Diluted inoculum cultures were used to inoculate 25 μl, per well in 96-well broth microdilution assay plates. The final volume of each well was 100 μL and contained a β-lactam at different concentrations, a BLIcompound at 4 μg/mL concentration, the bacterial culture at an OD600 of approximately 0.001 and when necessary tetracycline at 25 μg/mL.
Plates were incubated for 18-20 hours at 37° C. with aeration (200 rpm). Following incubation, growth was confirmed visually placing plates over a viewing apparatus (stand with a mirror underneath) and then OD600 was measured using a SpectraMax 340PC384 plate reader (Molecular Devices, Sunnyvale, Calif.). Growth was defined as turbidity that could be detected with the naked eye or achieving minimum OD600 of 0.1. MIC values were defined as the lowest concentration producing no visible turbidity.
The synergy MIC (sMIC) assay determines the concentration of the BLI required to potentiate the activity of a fixed concentration of a β-lactam antibiotic against β-lactamase producing bacterial strains. The experimental protocol was performed according to Clinical and Laboratory Standards Institute (CLSI) guidelines with modifications as described below (CLSI guidelines can be derived from the CLSI document M07-A9 published in January 2012: “Methods for Dilution Antimicrobial Susceptibility Tests for Bacteria That Grow Aerobically; Approved Standard-Ninth Edition”). […]

Row | SMILES | more active than Avibactam for at least one bacterial strain that expresses KPC β-lactamase and/or better spectrum of activity against KPC strains
1 | O=C1N2C[C@@H](CC[C@H]2c2nnc(CCNCCO)o2)N1OS(=O)(=O)O [Compound 736, (2S,5R)-2-(5-(2-((2-hydroxyethyl)amino)ethyl)-1,3,4-oxadiazol-2-yl)-7-oxo-1,6-diazabicyclo[3.2.1]octan-6-yl hydrogen sulfate] | more active than Avibactam
2 | N=C(N)Nc1nnc([C@@H]2CC[C@@H]3CN2C(=O)N3OS(=O)(=O)O)o1 [Compound 738, (2S,5R)-2-(5-guanidino-1,3,4-oxadiazol-2-yl)-7-oxo-1,6-diazabicyclo[3.2.1]octan-6-yl hydrogen sulfate] | more active than Avibactam
3 | N=C(N)NCC(O)Cc1nnc([C@@H]2CC[C@@H]3CN2C(=O)N3OS(=O)(=O)O)o1 (stereo partly drawn) [Compound 730, (2S,5R)-2-(5-(3-guanidino-2-hydroxypropyl)-1,3,4-oxadiazol-2-yl)-7-oxo-1,6-diazabicyclo[3.2.1]octan-6-yl hydrogen sulfate] | more active than Avibactam
4 | O=C1N2C[C@@H](CC[C@H]2c2nnc(C3CC4(CNC4)C3)o2)N1OS(=O)(=O)O [Compound 750, (2S,5R)-2-(5-(2-azaspiro[3.3]heptan-6-yl)-1,3,4-oxadiazol-2-yl)-7-oxo-1,6-diazabicyclo[3.2.1]octan-6-yl hydrogen sulfate] | more active than Avibactam
5 | N[C@H]1C[C@@H](NCc2nnc([C@@H]3CC[C@@H]4CN3C(=O)N4OS(=O)(=O)O)o2)C1 [Compound 756, (2S,5R)-2-(5-((((1s,3R)-3-aminocyclobutyl)amino)methyl)-1,3,4-oxadiazol-2-yl)-7-oxo-1,6-diazabicyclo[3.2.1]octan-6-yl hydrogen sulfate] | more active than Avibactam
6 | O=C1N2C[C@@H](CC[C@H]2c2nnc(CCNC3CNC3)o2)N1OS(=O)(=O)O [Compound 745, (2S,5R)-2-(5-(2-(azetidin-3-ylamino)ethyl)-1,3,4-oxadiazol-2-yl)-7-oxo-1,6-diazabicyclo[3.2.1]octan-6-yl hydrogen sulfate] | more active than Avibactam
7 | O=C1N2C[C@@H](CC[C@H]2c2nnc(CCCNC3CCNCC3)o2)N1OS(=O)(=O)O [Compound 771, (2S,5R)-7-oxo-2-(5-(3-(piperidin-4-ylamino)propyl)-1,3,4-oxadiazol-2-yl)-1,6-diazabicyclo[3.2.1]octan-6-yl hydrogen sulfate] | more active than Avibactam
8 | N[C@H]1C[C@@H](CCc2nnc([C@@H]3CC[C@@H]4CN3C(=O)N4OS(=O)(=O)O)o2)C1 [Compound 754, (2S,5R)-2-(5-(2-((1s,3S)-3-aminocyclobutyl)ethyl)-1,3,4-oxadiazol-2-yl)-7-oxo-1,6-diazabicyclo[3.2.1]octan-6-yl hydrogen sulfate] | more active than Avibactam
9 | N[C@H]1CN[C@@H](c2nnc([C@@H]3CC[C@@H]4CN3C(=O)N4OS(=O)(=O)O)o2)C1 [Compound 761, (2S,5R)-2-(5-((2R,4R)-4-aminopyrrolidin-2-yl)-1,3,4-oxadiazol-2-yl)-7-oxo-1,6-diazabicyclo[3.2.1]octan-6-yl hydrogen sulfate] | more active than Avibactam
10 | NC(=O)c1nnc([C@@H]2CC[C@@H]3CN2C(=O)N3OS(=O)(=O)O)o1 [Compound 706, (2S,5R)-2-(5-carbamoyl-1,3,4-oxadiazol-2-yl)-7-oxo-1,6-diaza-bicyclo[3.2.1]octan-6-yl hydrogen sulfate] | more active than Avibactam
11 | NCc1nnc([C@@H]2CC[C@@H]3CN2C(=O)N3OS(=O)(=O)O)o1 [Compound 702, (2S,5R)-2-(5-(aminomethyl)-1,3,4-oxadiazol-2-yl)-7-oxo-1,6-diazabicyclo[3.2.1]octan-6-yl hydrogen sulfate] | more active than Avibactam
12 | O=C1N2C[C@@H](CC[C@H]2c2nnco2)N1OS(=O)(=O)O [Compound 701, (2S,5R)-2-(1,3,4-oxadiazol-2-yl)-7-oxo-1,6-diazabicyclo[3.2.1]octan-6-yl hydrogen sulfate] | more active than Avibactam
13 | N=C(N)NC[C@@H](O)c1nnc([C@@H]2CC[C@@H]3CN2C(=O)N3OS(=O)(=O)O)o1 [Compound 731, (2S,5R)-2-(5-((R)-2-guanidino-1-hydroxyethyl)-1,3,4-oxadiazol-2-yl)-7-oxo-1,6-diazabicyclo[3.2.1]octan-6-yl hydrogen sulfate] | more active than Avibactam
14 | N[C@H]1C[C@@H](c2nnc([C@@H]3CC[C@@H]4CN3C(=O)N4OS(=O)(=O)O)s2)C1 [Compound 795, (2S,5R)-2-(5-((1s,3R)-3-aminocyclobutyl)-1,3,4-thiadiazol-2-yl)-7-oxo-1,6-diazabicyclo[3.2.1]octan-6-yl hydrogen sulfate] | more active than Avibactam
15 | N[C@H]1C[C@H](Cc2nnc([C@@H]3CC[C@@H]4CN3C(=O)N4OS(=O)(=O)O)o2)C1 [Compound 751, (2S,5R)-2-(5-(((1r,3S)-3-aminocyclobutyl)methyl)-1,3,4-oxadiazol-2-yl)-7-oxo-1,6-diazabicyclo[3.2.1]octan-6-yl hydrogen sulfate] | more active than Avibactam
16 | NC1CC(NCc2nnc([C@@H]3CC[C@@H]4CN3C(=O)N4OS(=O)(=O)O)o2)C1 (stereo partly drawn) [Compound 755, (2S,5R)-2-(5-(((3-aminocyclobutyl)amino)methyl)-1,3,4-oxadiazol-2-yl)-7-oxo-1,6-diazabicyclo[3.2.1]octan-6-yl hydrogen sulfate] | more active than Avibactam
17 | N=C(N)NC1(Cc2nnc([C@@H]3CC[C@@H]4CN3C(=O)N4OS(=O)(=O)O)o2)CC1 [Compound 739, (2S,5R)-2-(5-((1-guanidinocyclopropyl)methyl)-1,3,4-oxadiazol-2-yl)-7-oxo-1,6-diazabicyclo[3.2.1]octan-6-yl hydrogen sulfate] | more active than Avibactam
18 | N[C@H]1C[C@H](c2nnc([C@@H]3CC[C@@H]4CN3C(=O)N4OS(=O)(=O)O)s2)C1 [Compound 783, (2S,5R)-2-(5-((1r,3S)-3-aminocyclobutyl)-1,3,4-thiadiazol-2-yl)-7-oxo-1,6-diazabicyclo[3.2.1]octan-6-yl hydrogen sulfate] | more active than Avibactam

Reference: patent publication US8933232B2, “1,3,4-oxadiazole and 1,3,4-thiadiazole beta-lactamase inhibitors” (priority 2012, dated 2015)
